According to patent US7579477B2, “Thiazole-based nitric oxide donors having alkyl substituent(s) and uses thereof” (priority 2004, dated 2009):
“Also recorded” adds a separate entry of the source.

Experiments:
[1] = tested on: mean arterial blood pressure of rats; assay: Hypotensive effects: mean arterial pressure after iv bolus; type: in vivo, rat; conditions: anesthetized rats, phenylephrine, iv bolus doses
Procedure: Mean arterial pressure (MAP) was monitored and determined during bolus infusion of Pet-2, Pet-3, Pet-7, Pet-8, Pet-12 and Pet-13. Briefly, polyethylene catheters (PE50) were inserted into the carotid artery and into the jugular vein of anesthetized hypertensive Sprague-Dawley male rats (200-300 grams). A blood pressure recorder was placed within the carotid artery. Phenylephrine (0.1 mg) was then injected and the mean arterial blood pressure (MABP) was monitored continuously until a stable baseline was reached. The hypotensive effects of intravenous (iv) bolus doses (0.1 mg of each tested compound) administered intravenously at the jugular vein in minimal volume of vehicle (0.2 ml per dose) were evaluated. Five minutes were allowed between each dose, during which the maximal decrease in MAP was recorded and a dose-response graph comparing the hypotensive effect of the compounds was constructed.

isolated rat aorta [2] = assay: In vitro vasorelaxation of rat aortic rings contracted with epinephrine; type: cell-based; conditions: isolated rat aorta pre-treated in vitro with 1 μM epinephrine; figure legends
Description: Male Sprague Dawley rats were anaesthetized using intraperitoneal injection of ketamine and xylazine (50 and 10 milligram per kilogram, respectively) and the thoracic aorta, the large upper portion of the descending aorta, starting at the caudal border of the chest bone, was removed thereafter, while carefully removing the paraadventetial tissue surrounding the vessel. Aortae were cut into rings of 4-5 millimeters and mounted onto the tissue path. The path buffer (Krebs-bicrbonate) was constantly gassed with carbogen and maintained at 37° C. The rings were preloaded under 2 g tension and equilibrated for 90 minutes, while refreshing the buffer every 15 minutes. After stabilization, the rings were contracted with epinephrine (1 μM). Cumulative Concentration-Response Curves (CCRC) were measured for the vasorelaxing effect induced by adding various concentrations, ranging from 10^−10 M to 10^−5 M of Pet-2, Pet-3, Pet-7, Pet-8, Pet-12, Pet-24, Pet-43, Pet-59, Pet-147, Pet-152 and Pet-154, and glyceryltrinitrate (GTN), according to the procedure described in Feelich et al., Molecular Pharmacology, 56:243-253 (1999). The vehicle, which was used for this experiment was water:ethanol:propyleneglycol at proportional ratio of 1:1:1.

[3] = tested on: c-GMP in aortic rat tissue; assay: Cyclic-GMP measurement in aortic rat tissue (radioimmunoassay); type: cell-based; conditions: for levels of cGMP as compared with GTN: isolated rat aorta, FIGS. 25, 27, 33
Procedure: GTN (10^−6 M) was added to the chamber and, 1 minute after exposure to the drug, rings (usually 3-5) were taken, wrapped with aluminum foil and immediately frozen in liquid nitrogen for storage. Control sample group was treated with the vehicle solution only. At the time of analysis, rings were thawed, blotted over a dry gauzed and weighted. A known weight of tissue was homogenized in 2 ml ice-cold modified Hank's balanced salt solution containing (in gram/liter) NaCl 8; KCl 0.4; glucose 1; KH2PO4 0.06; Na2HPO4 0.047; Phenol red 0.017 and further containing 25 mM EDTA (disodium salt). The homogenate was centrifuged at 4000 g (force units) for 10 minutes at 2-4° C. and the supernatant was thereafter transferred into fresh pre-cooled test tube containing 1 ml of acetonitrile. The tubes were vortex mixed for a few seconds and subsequently centrifuged at 4000 g for 5 minutes at 2-4° C., to remove the precipitated protein. Each supematant was transferred into a clean test tube and evaporated to dryness under a stream of nitrogen at 55° C. The dry residue was reconstituted with 10 volumes of Tris-EDTA buffer pH 7.5 (0.05 M Tris containing 4 mM EDTA). Aliquots of 100 μl of the reconstituted solution in duplicate were used for c-GMP measurements using Amersham RIA kit, as is described in Haj-Yehia & Benet [Pharmacology, 1995, 273, 1, pp. 94-100]. Standard curves were plotted with six concentrations (0, 0.5, 1, 2, 4 and 8 pmoles of c-GMP per tube).

isolated rat aorta [4] = assay: In vitro induction of tolerance to NO releasing compounds (vasorelaxation after pre-exposure); type: cell-based; conditions: rat aorta pre-treated with epinephrine and then with the compound (0.44 mM) versus control
Procedure: Aortic rings were prepared as described hereinabove, and were exposed to 0.44 mM GTN (vehicle was water:ethanol:propyleneglycol at proportional ratio of 1:1:1) for 1 hour before CCRC construction, to thereby induce tolerance to nitroglycerine. At the end of the tolerance induction period, rings were thrice washed with the path buffer (Krebs-bicrbonate) every 15 minutes for the following hour and then CCRC for vasorelaxation on GTN-induced tolerance rings were constructed for GTN (pretreated versus untreated rings, FIG. 15), in order to verify the ability to induce and measure GTN tolerance induction in vitro
Attempted induction of tolerance to the NO-donating compounds of the present invention was performed under the same conditions as for GTN. Thus, in an exemplary experiment, rings were exposed to 0.44 mM solution of Pet-3 in the attempt to induce tolerance for Pet-3. CCRC were then measured for the vasorelaxing effect of Pet-3 on a group of rings which were pre-exposed to Pet-3 as to induce tolerance to Pet-3, and for an untreated control group. The above protocol was repeated with Pet-2, Pet-7, Pet-8, Pet-12, Pet-24, Pet-43, Pet-149 and Pet-152.

isolated rat aorta [5] = assay: Cross-tolerance study GTN / Pet-12 on aortic rings; type: cell-based
Procedure: Cross-tolerance studies were conducted using the same technique described above for measuring vasorelaxation of aortic rings from rats. Two groups of aortic rings samples were pre-treated with GTN, then one group was measured for vasorelaxation by GTN and the second group for vasorelaxation by Pet-12, an exemplary NO-donor according to the present invention. For the opposite cross-tolerance studies, two groups of aortic rings samples were pre-treated with Pet-12, then one group was measured for vasorelaxation by GTN and the second group for vasorelaxation by Pet-12.

[6] = tested on: cGMP in isolated aorta of rats pre-treated in vivo; assay: Induction of in vivo nitrate tolerance (cGMP in aorta after 16 hour infusion); design: species or system rat; conditions: for tolerance induction in vivo: cGMP accumulation in aorta of rats pre-treated in vivo, FIGS. 24, 26
Procedure: For c-GMP levels and tolerance development, the rat's thoracic aorta was isolated after exposure to the tested compound in vivo, and measured as described above in the in vitro assays.
Male Sprague Dawley rats (220 to 250 grams) were housed under constant temperature and humidity conditions. Light was maintained at a 12/12 light dark cycle. Except for 12 hours before the experiment, when food fasting was initiated, all rats had free access to standard rat pellet diet and tap water. The animals were anesthetized by intraperitoneal injection of ketamine and xylazine combination (50 and 10 milligram per kilogram, respectively). […] The catheters were filled with normal saline solution containing 1000 IU/ml of heparin and plugged with a metal pin. Catheters were externalized to the back of the neck region and secured by a polyester felt disk.
After implantation, the rats were individually housed until they regained their preoperative weight and appeared healthy (3 to 4 days post-operation). At this time point (day 0), an osmotic mini-pump (Alza Corp., Palo Alto, Calif.) delivering constant volume (10 μl/hour) of vehicle or drug was connected to one of the intravenous catheters.
For inducing tolerance to the tested NO-donor according to the present invention, the animals received 200 μg/hour of the tested compound for 16 hours (short-term-induced tolerance). A similar number of animals were processed by the same surgical procedure and received the vehicle alone (10 μl/hour of a solution consisting of 30% ethanol and 30% propylene glycol in sterile distilled water for injection).
At the end of the infusion periods used for the development of tolerance (16 hour), the rats were anesthetized as described above, the two catheters were externalized and the delivering catheters were disconnected from the mini-pump. The abdomen was opened by midline incision and the thoracic aorta were isolated, washed and cleaned from the surrounding tissues. […]

Structure (SMILES) | hypotensive effect on MAP following successive administrations [1] | vasorelaxation effect as compared with glyceryltrinitrate (isolated rat aorta [2]) | levels of cGMP as compared with GTN [3] | tolerance induction in vitro (isolated rat aorta [4]) | further results
Cc1nc(-c2ccccc2)sc1CCO[N+](=O)[O-] [Pet-8, 4-Methyl-5-(2-nitrooxy-ethyl)-2-phenyl-thiazole] | consistent and reproducible | superior | increased levels of cGMP |  | 
CNc1cncc(-c2nc(C)c(CCO[N+](=O)[O-])s2)n1 [Pet-24, Methyl-{6-[4-methyl-5-(2-nitrooxy-ethyl)-thiazol-2-yl]-pyrazin-2-yl}-amine] |  |  | increased levels of cGMP | absence of tolerance induction | 
Cc1nc(Nc2cccc3ccccc23)sc1CCO[N+](=O)[O-] [Pet-149, [4-Methyl-5-(2-nitrooxy-ethyl)-thiazol-2-yl]-naphthalen-1-yl-amine] |  | superior | increased levels of cGMP | absence of tolerance induction | 
Cc1nc(N(C)C)sc1CCO[N+](=O)[O-] [Pet-7, Dimethyl-[4-methyl-5-(2-nitrooxy-ethyl)-thiazol-2-yl]-amine] | consistent and reproducible |  | increased levels of cGMP | absence of tolerance induction | 
Cc1nc(C)c(CCO[N+](=O)[O-])s1 [Pet-3, 2,4-Dimethyl-5-(2-nitrooxy-ethyl)-thiazole] | consistent and reproducible | superior | increased levels of cGMP | absence of tolerance induction | 
Cc1nc(-c2cccnc2)sc1CCO[N+](=O)[O-] [Pet-12, 3-[4-Methyl-5-(2-nitrooxy-ethyl)-thiazole-2-yl]-pyridine] | consistent and reproducible |  |  | absence of tolerance induction | effect of induced tolerance to GTN on vasorelaxation capacity (isolated rat aorta [5]; rings pre-treated with GTN): no effect; tolerance evoked by pre-treatment with Pet-12 (isolated rat aorta [5]; rings pre-treated with Pet-12, vasorelaxation by GTN or Pet-12): does not evoke tolerance to itself not to GTN; tolerance induction in vivo [6]: absence of tolerance induction; also recorded: lack of tolerance induction
Cc1nc(NC(=O)c2cccnc2)sc1CCO[N+](=O)[O-] [Pet-154, N-[4-methyl-5-(2-nitrooxy-ethyl)-thiazol-2-yl]-nicotinamide] |  |  | increased levels of cGMP |  | 
Cc1nc(N)sc1CCO[N+](=O)[O-] [Pet-10, 4-methyl-5-(2-nitrooxy-ethyl)-thiazole-2-ylamine] |  |  | increased levels of cGMP |  | 
O=[N+]([O-])OCC(CO[N+](=O)[O-])O[N+](=O)[O-] [GTN, glyceryl trinitrate, reference compound] | attenuation |  |  | tolerance induced | c-GMP level following a repeated treatment ([3]; rat aorta): significantly reduced; level of cGMP following a repeated treatment in vivo ([6]; aorta of rats infused in vivo, FIG. 24): decreased; tolerance induction in vivo [6]: tolerance inducing effect
Cc1nc(CCCCc2nc(C)c(CCO[N+](=O)[O-])s2)sc1CCO[N+](=O)[O-] [Pet-13] | consistent and reproducible |  |  |  | 
Cc1nc(NC(=O)[C@@H](C)c2ccc(CC(C)C)cc2)sc1CCO[N+](=O)[O-] (stereo in doubt) [Pet-152, 2-(4-Isobutyl-phenyl)-N-[4-methyl-5-(2-nitrooxy-ethyl)-thiazol-2-yl]-propionamide] |  | superior | increased levels of cGMP |  | 
C=CCNc1nc(C)c(CCO[N+](=O)[O-])s1 [Pet-155, allyl-[4-methyl-5-(2-nitrooxy-ethyl)-thiazol-2-yl]-amine] |  | superior | increased levels of cGMP |  | 
Cc1nc(-c2ccc(C(F)(F)F)cc2)sc1CCO[N+](=O)[O-] [Pet-59, 4-Methyl-5-(2-nitrooxy-ethyl)-2-(4-trifluoromethyl-phenyl)-thiazole] |  | superior | increased levels of cGMP |  | 
Cc1nc(Nc2nc(C)c(CCO[N+](=O)[O-])s2)sc1CCO[N+](=O)[O-] [Pet-43, Bis-[4-methyl-5-(2-nitrooxy-ethyl)-thiazol-2-yl]-amine] |  | superior |  | absence of tolerance induction | 
CCNc1nc(C)c(CCO[N+](=O)[O-])s1 [Pet-147, Ethyl-[4-methyl-5-(2-nitrooxy-ethyl)-thiazol-2-yl]-amine] |  |  | increased levels of cGMP |  | 
